Assays:
HS-SY-II cells [1] = assay: Gene expression changes in vitro (RT-PCR, normalized to GAPDH); assay type: cell-based, human; details: HS-SY-II in vitro culture
Protocol: ATF3, EGR1, CDKN2A and GAPDH expression were analyzed by using the TaqMan Gene Expression Assays (Life technologies, 4331182) and the TaqMan Probes (Hs00231069_ml, Hs00152928_ml, Hs00233365_ml, and Hs99999905_ml, respectively).

SW982 cells [2] = details: SW982 in vitro culture
HS-SY-II cells [3] = assay: Adherent cell line 14-day long-term proliferation assay (CellTiter-Glo); assay type: cell-based, human
Protocol: (§1) 96-well plating for 7 day assay: For each adherent cell line, plated cells in a volume of 100 μL in 96-well plates, to be treated in triplicate, either in the evening (to treat with compound the following day) or in morning (to treat with compound in the evening), to allow cells to attach to plates before compound treatment.
(§2) 6-well plates to be split for 7-14 day assay: Plated 2mL of cells at the correct density in each well of the 6-well plate. Calculated the correct density from the 96-well plate growth curve by multiplying the 96-well density by 30. The factor 30 came from growth area of the 6-well plate divided by the growth area of the 96-well plate (9.5cm^2/0.32cm^2=29.7, rounded up to 30), which corresponds to 30-fold more surface area in a 6-well vs. a 96-well plate.
(§3) Day 0: Treated with compound or DMSO by removing media and adding back either […] (for 96-well plate) or 2 mL (for 6-well plate) media with the correct dilutions of compound/DMSO. Table 1 includes an example of 96-well plate map. Plates were incubated for 96 hours.
(§4) Read one 96-well plate with CellTiter-Glo®, for a Day 0 reading (media change not necessary for this plate).
(§5) Day 4: Read one 96-well plate with CellTiter-Glo® for a Day 4 reading (media change not necessary for this plate before reading). Replaced media with fresh media containing compound on Day 4 in 96-well plates and 6-well plates.
(§6) Day 7: read final 96-well plate with CellTiter-Glo®.
(§7) Counted individual wells of 6-well plates, and replated cells to initial plating density in 96-well plates, as described above.
(§8) Repeated steps for Days 0-7 for Days 7-14 of the proliferation assay.
(§9) Particularly, approximately 12 hours before compound treatment, HS-SY-II or SW982 cells were plated at the density of 24,000 cells/well and 7,500 cells/well, respectively in 6-well plates. On day 0, cells were treated with either DMSO or compound starting at 10 μmol/L and decreasing in fourfold dilutions. On day 7, the cells in 6-well plates were trypsinized, counted by TC10 automated cell counter (Bio-Rad, Richmond, Calif.) and replated at the density of 800 cells/well and 250 cells/well for HS-SY-II and SW982, respectively in 96-well plates in triplicate. The cells were allowed to adhere to the plate overnight, and treated with either DMSO or compound as on Day 0. On days 0, 7, 11, and 14, cell viability was determined by CellTiter-Glo® Luminescent Cell Viability Assay (Promega) with EnVision 2103 Multilabel Reader (Perkin-Elmer, Wellesley, Mass.). Compound/media was changed with new one on Day 4 and 11. The ratios of the measured values on Days 7, 11, and 14 to that of day 7 were used to plot proliferation from day 7 to day 14, and to calculate the IC50 values on Day 14. […]

SW982 cells [4] = assay: as above; assay type: cell-based, human
Protocol: as §1, §2, §3, §4, §5, §6, §7, §8, §9

SMILES | ATF3 and EGR1 expression (HS-SY-II cells [1]) | CDKN2A expression (HS-SY-II cells [1]) | ATF3 and EGR1 expression (SW982 cells [2]) | sensitivity (cell proliferation / viability) (HS-SY-II cells [3]) | sensitivity (cell proliferation / viability) (SW982 cells [4])
CCN(c1cc(-c2ccc(CN3CCOCC3)cc2)cc(C(=O)NCc2c(C)cc(C)[nH]c2=O)c1C)[C@H]1CC[C@H](N(C)C)CC1 [Compound C] | upregulated | Dose- and time-dependent CDKN2A upregulation | not in SW982 |  | 
CCN(c1cc(-c2ccc(CN3CCOCC3)cc2)cc(C(=O)NCc2c(C)cc(C)[nH]c2=O)c1C)[C@H]1CC[C@H](N(C)C)CC1 [Compound E] |  |  |  | high sensitivity | did not
